Laboratory results reported in publication PMC5835418 (Journal of pharmaceutical and biomedical analysis, 2018).
Counter-ions that a name gives are not always drawn. Values belong to the compound of their own block, whether it stands above or below them.

Legend:
[1] = human, 24 h
[2] = human, 244 days
[3] = for number of freeze-thaw cycles for which stable: plasma, -80°C
[4] = following a single 25 mg dose of TAF; ref 24 (Custodio and colleagues); cited from earlier work
[5] = 72 h
[6] = ex vivo, data not shown
[7] = Plasma concentrations in mice after rectal enema dosing of TAF or CMX157; assay type: in vivo
[8] = Injection matrix stability; conditions: 72 h at 4°C, compared to the previously run curve; data not shown
[9] = data not shown
[10] = cited from earlier work

- sample matrix stability %DIF [1]: -14.5-8.45%
- long term storage stability %DIF [2]: ≤ ±10.5%
- freeze-thaw stability %DIF ([3]; human): -15.2-3.04%
- number of freeze-thaw cycles for which stable [3]: three
- injection matrix stability %DIF [5]: −8.44-5.57%
Compound: C[C@H](Cn1cnc2c(N)ncnc21)OCP(=O)(O)O [TFV, tenofovir]
- Cmax [4]: 9.5 ng/mL

Compound: CCCCCCCCCCCCCCCCOCCCOP(=O)(O)CO[C@H](C)Cn1cnc2c(N)ncnc21 [CMX157, hexadecyloxypropyl tenofovir]
- time up to which stable in whole blood [6]: ≤ 8 h

Compound: CC(C)OC(=O)[C@H](C)N[P@](=O)(CO[C@H](C)Cn1cnc2c(N)ncnc21)Oc1ccccc1 [TAF, tenofovir alafenamide fumarate]
- plasma TAF/TFV ratio ([7]; colonic administration of TAF, mice): < 1
- time for conversion of TAF into TFV ([7]; mice dosed rectally with TAF): less than 15 minutes
- plasma samples with detectable systemic TAF ([7]; mice, rectal TAF): 60%
- injection matrix stability [8]: unstable
- number of freeze-thaw cycles for which stable [3]: two
- time up to which stable in whole blood [6]: up to 1 h
- stability in mouse plasma as compared to human matrices [9]: less stable

Compound: CC(C)OC(=O)OCOP(=O)(CO[C@H](C)Cn1cnc2c(N)ncnc21)OCOC(=O)OC(C)C [TDF, tenofovir disoproxil fumarate]
- increase in TFV bioavailability by prodrug administration [10]: 25%
